The source of these data is US10172832B2, “Amide derivatives of N-urea substituted amino acids as formyl peptide receptor like-1 (FPRL-1) receptor modulators” (Allergan, Inc., priority 2011, dated 2019).

A word on the EC50: it is the concentration at which the effect is half-maximal.

The structures appear in SMILES notation.

The assay has as its target T1, FPRL-1 (Homo sapiens, UniProt P25090).
T1 construct: expressed in transfected cells
T1 sequence (P25090 1-351): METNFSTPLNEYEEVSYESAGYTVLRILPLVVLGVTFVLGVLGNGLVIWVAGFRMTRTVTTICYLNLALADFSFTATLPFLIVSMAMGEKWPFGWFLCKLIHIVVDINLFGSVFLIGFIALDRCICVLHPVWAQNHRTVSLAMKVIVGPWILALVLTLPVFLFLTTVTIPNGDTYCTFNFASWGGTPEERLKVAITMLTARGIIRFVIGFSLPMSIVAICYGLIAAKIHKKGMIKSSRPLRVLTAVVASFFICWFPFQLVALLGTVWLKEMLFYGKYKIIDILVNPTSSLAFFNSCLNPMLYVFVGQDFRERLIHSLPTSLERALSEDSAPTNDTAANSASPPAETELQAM
Description: compound-induced calcium activity on FLIPR Tetra in CHO-Gα16 cells stably expressing FPRL1. Format: cell-based. The following applies: for EC50: tested 0.61 to 10,000 nM, read-out: FPRL-1 Ga16-CHO EC50; for FPRL-1 Ga16-CHO (Rel. eff.): relative efficacy. The method, boiled down:
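CHO-Gα16 cells stably expressing FPRL1, plated at 18,000 cells/well the day before, were read for compound-induced calcium response on FLIPR Tetra.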

Take `CC(C)C[C@H](NC(=O)Nc1ccc(Br)cc1)C(=O)N[C@H](C)CO` [Compound 48, (2S)-2-{[(4-bromophenyl)carbamoyl]amino}-N-[(1R)-2-hydroxy-1-methylethyl]-4-methylpentanamide]: the 50% effective concentration (EC50) was 3 nM. Regarding `CC(C)(C)OC(=O)CCNC(=O)[C@H](Cc1ccccc1)NC(=O)Nc1ccc(Br)cc1` [Compound 8, tert-butyl 3-{[(2S)-2-{[(4-bromophenyl)carbamoyl]amino}-3-phenylpropanoyl]amino}propanoate], the “FPRL-1 Ga16-CHO (Rel. eff.)” value is “(1.00)” and the EC50 came to 255 nM.

For `CCC[C@H](NC(=O)Nc1ccc(Br)cc1)C(=O)NCC(N)=O` [Compound 30, (2S)-N-(2-amino-2-oxoethyl)-2-{[(4-bromophenyl)carbamoyl]amino}-pentanamide], the “FPRL-1 Ga16-CHO (Rel. eff.)” value is reported as “(0.97)” and the EC50 stood at 2.5 nM. On to `CCC[C@H](NC(=O)[C@H](CC(C)C)NC(=O)Nc1ccc(Br)cc1)C(=O)OC(C)(C)C` [Compound 49], for which the “FPRL-1 Ga16-CHO (Rel. eff.)” value is on record as “(1.06)” and the EC50 stood at 13 nM.

With `CC[C@H](C)[C@H](NC(=O)Nc1ccc(Br)cc1F)C(=O)NCC(C)=O` [Compound 13, (2S,3S)-2-{[(4-bromo-2-fluorophenyl)carbamoyl]amino}-3-methyl-N-(2-oxopropyl)pentanamide], the “FPRL-1 Ga16-CHO (Rel. eff.)” value was “(1.01)” and the EC50 turned out to be 36 nM.

As to `CCC[C@H](NC(=O)Nc1ccc(Br)cc1)C(=O)NCC(=O)OC(C)C` [Compound 24, isopropyl {[(2S)-2-{[(4-bromophenyl)carbamoyl]amino}-pentanoyl]amino}acetate], the “FPRL-1 Ga16-CHO (Rel. eff.)” value is recorded as “(1.04)” and the EC50 came to 14 nM. Turning to `CC(C)C[C@H](NC(=O)Nc1ccc(Br)cc1)C(=O)NCCO` [Compound 26, (2S)-2-{[(4-bromophenyl)carbamoyl]amino}-N-(2-hydroxyethyl)-4-methylpentanamide], the “FPRL-1 Ga16-CHO (Rel. eff.)” value was “(0.92)” and the EC50 came to 11 nM. The corresponding values for `O=C(O)CNC(=O)[C@H](Cc1ccccc1)NC(=O)Nc1ccc(Br)cc1` [Compound 1, {[(2S)-2-{[(4-bromophenyl)carbamoyl]amino}-3-phenylpropanoyl]amino}acetic acid] are “(0.99)” and 7.7 nM. The like results for `CC(C)C[C@H](NC(=O)Nc1ccc(Br)cc1)C(=O)NC(C)(C)C(=O)O` [Compound 74, 2-{[(2S)-2-{[(4-bromophenyl)carbamoyl]amino}-4-methylpentanoyl]amino}-2-methylpropanoic acid] were, in that order, “(0.96)” and 1 nM. Regarding `CC(C)C[C@H](NC(=O)Nc1ccc(Br)cc1)C(=O)N[C@@H](C)C(=O)O` [Compound 43, (2S)-2-{[(2S)-2-{[(4-bromophenyl)carbamoyl]amino}-4-methylpentanoyl]amino}propanoic acid], the “FPRL-1 Ga16-CHO (Rel. eff.)” value was “(1.05)” and the concentration for a half-maximal effect (EC50) was 11 nM.

On to `CC[C@H](C)[C@H](NC(=O)Nc1ccc(Br)cc1)C(=O)NCC(=O)O` [Compound 4, {[(2S,3S)-2-{[(4-bromophenyl)carbamoyl]amino}-3-methylpentanoyl]amino}acetic acid], for which the “FPRL-1 Ga16-CHO (Rel. eff.)” value is reported as “(1.00)” and the EC50 turned out to be 2.7 nM. The like results for `CCC[C@H](NC(=O)Nc1ccc(Br)cc1F)C(=O)NCC(=O)O` [{[(2S)-2-{[(4-bromo-2-fluorophenyl)carbamoyl]amino}pentanoyl]amino}acetic acid] were, in that order, “(0.92)” and 4.8 nM. Turning to `CCC[C@H](NC(=O)Nc1ccc(Br)cc1)C(=O)NCC(=O)OC` [Compound 22, methyl {[(2S)-2-{[(4-bromophenyl)carbamoyl]amino}-pentanoyl]amino}acetate], the “FPRL-1 Ga16-CHO (Rel. eff.)” value was “(0.88)” and the EC50 is 17 nM. For `CC(C)C[C@H](NC(=O)Nc1ccc(Br)cc1)C(=O)N[C@@H](C)C(N)=O` [Compound 45, (2S)-N-[(1S)-2-amino-1-methyl-2-oxoethyl]-2-{[(4-bromophenyl)carbamoyl]amino}-4-methylpentanamide], the “FPRL-1 Ga16-CHO (Rel. eff.)” value was “(0.96)” and the EC50 stood at 24 nM. The corresponding values for `CC[C@H](C)[C@H](NC(=O)Nc1ccc(Br)cc1F)C(=O)NCCO` [Compound 15, (2S,3S)-2-{[(4-bromo-2-fluorophenyl)carbamoyl]amino}-N-(2-hydroxyethyl)-3-methylpentanamide] are “(1.00)” and 62 nM.
